Measured values reported in ChEMBL document CHEMBL1201862, “PubChem BioAssay data set” (2004).
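96-well plates; 48 h exposure; 5 concentrations. Endpoints by linear interpolation between flanking doses. Not reached: highest tested concentration assigned. Here, GI50 denotes the concentration required for 50% inhibition of growth.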 Activity calls are given as the source filed them. No stated cut-off is given here; in the data, active = GI50 up to about 1.1 µM and inactive = higher.

Legend:
Test in all cases: DTP human tumour cell line panel, 48 h
DLD-1 = tested on: DLD-1
XF498 = tested on: XF498
DMS-114 = tested on: DMS-114
SNB-78 = tested on: SNB-78
DMS-273 = tested on: DMS-273
HOP-18 = tested on: HOP-18
KM-20L2 = tested on: KM-20L2
M19-MEL = tested on: M19-MEL
RXF 631 = tested on: RXF 631

Row | Compound | GI50 (DLD-1) | GI50 (XF498) | GI50 (DMS-114) | GI50 (SNB-78) | GI50 (DMS-273) | GI50 (HOP-18) | GI50 (KM-20L2) | GI50 (M19-MEL) | GI50 (RXF 631)
1 | N#C/C(=C/c1ccsc1)C(=O)c1ccccc1 | > 100 µM (inactive) | > 100 µM (inactive) | > 100 µM (inactive) | > 100 µM (inactive) | > 100 µM (inactive) | > 100 µM (inactive) | > 100 µM (inactive) | > 100 µM (inactive) | 
2 | C[C@]12Cc3conc3C(O)=C1CC[C@@H]1C2CC[C@@]2(C)C1CC[C@]2(C)O (stereo partly specified) | 16.5 µM (inactive) | 18.2 µM (inactive) | 16.4 µM (inactive) | 22.4 µM (inactive) | 9.04 µM (inactive) |  | 13.5 µM (inactive) | 15.1 µM (inactive) | 21.6 µM (inactive)
3 | COC(=O)CCC(=O)CC(=O)C(=O)Nc1ccc(F)cc1 | > 100 µM (inactive) |  | > 100 µM (inactive) | > 100 µM (inactive) | > 100 µM (inactive) | > 100 µM (inactive) | > 100 µM (inactive) | > 100 µM (inactive) | 
4 | COc1ccc2c(CCNC(=O)/C=C/c3ccccc3)c(C(C)=O)[nH]c2c1[N+](=O)[O-] |  |  | 13.6 µM (inactive) | 40.2 µM (inactive) | 5.64 µM (inactive) |  | 19.1 µM (inactive) |  | 13.2 µM (inactive)
5 | COC1=C(OC)C(=O)c2cc(C)c(=O)c(C)cc2C1=O | 22.3 µM (inactive) |  | 3.27 µM (inactive) | 18.5 µM (inactive) | 25.4 µM (inactive) | 16.3 µM (inactive) | 21.1 µM (inactive) | 3.37 µM (inactive) | 50.6 µM (inactive)
6 | COC(=O)C1=C(C(=O)OC)C2(C(=O)OC)OC1(OC)C(C1(C(=O)OC)C(C(=O)OC)=C1C(=O)OC)=C2C(=O)OC (stereo unspecified) | > 100 µM (inactive) | > 100 µM (inactive) | > 100 µM (inactive) | > 100 µM (inactive) | > 100 µM (inactive) | > 100 µM (inactive) | > 100 µM (inactive) | > 100 µM (inactive) | 
7 | O=S1(=O)NN=C(NCc2ccc(Cl)cc2)c2ccccc21 | 95.1 µM (inactive) | 90.6 µM (inactive) | > 100 µM (inactive) | > 100 µM (inactive) | > 100 µM (inactive) |  | > 100 µM (inactive) | > 100 µM (inactive) | > 100 µM (inactive)
8 | C=CC1=CSNN1 | > 100 µM (inactive) |  | > 100 µM (inactive) |  | > 100 µM (inactive) | > 100 µM (inactive) | > 100 µM (inactive) | > 100 µM (inactive) | 
9 | COC(=O)C1=Cc2cn(S(=O)(=O)c3ccc(C)cc3)c3cccc(c23)C(C=C(C)C)N1C(C)=O (stereo unspecified) | 14.7 µM (inactive) | 9.55 µM (inactive) | 11.5 µM (inactive) | 24.5 µM (inactive) | 6.01 µM (inactive) | 38.5 µM (inactive) | 69.3 µM (inactive) | 21.4 µM (inactive) | 
10 | CC(C)(C)OC(=O)NCCc1cccc2c1oc1c(CCC(=O)O)cccc12 | > 100 µM (inactive) | > 100 µM (inactive) | > 100 µM (inactive) | > 100 µM (inactive) | > 100 µM (inactive) | > 100 µM (inactive) | > 100 µM (inactive) | > 100 µM (inactive) | 
11 | Cc1[nH]c(O)nc1C(=O)c1ccc(-n2ccnc2)cc1 | > 100 µM (inactive) |  | > 100 µM (inactive) |  | > 100 µM (inactive) |  | > 100 µM (inactive) | > 100 µM (inactive) | 
12 | CN(C)c1cccc(-c2cc(O)c3cc4c(cc3n2)OCO4)c1 | 0.206 µM (active) | 0.144 µM (active) | 0.236 µM (active) | 62.8 µM (inactive) | 0.203 µM (active) |  | 0.216 µM (active) | 0.401 µM (active) | 0.815 µM (active)
13 | O=C(O)CN(c1ccc(F)cc1)S(=O)(=O)c1ccccc1 | > 100 µM (inactive) | > 100 µM (inactive) |  |  | > 100 µM (inactive) | > 100 µM (inactive) | > 100 µM (inactive) | > 100 µM (inactive) | > 100 µM (inactive)
14 | CC1OC(=O)C(C(C)C)NC(=O)C(C(C)C)OC(=O)C(C(C)C)NC(=O)C(C)OC(=O)C(C(C)C)NC(=O)C(C(C)C)OC(=O)C(C(C)C)NC(=O)C(C)OC(=O)C(C(C)C)NC(=O)C(C(C)C)OC(=O)C(C(C)C)NC1=O (stereo unspecified) | 0.00326 µM (active) |  | 0.0025 µM (active) | 0.00391 µM (active) | 0.0025 µM (active) | 0.0337 µM (active) | 0.0034 µM (active) | 0.00367 µM (active) | 
15 | O=C1c2ccccc2C(=O)c2c(O)ccc(O)c21 [QUINIZARIN] | 61.9 µM (inactive) |  | > 100 µM (inactive) | > 100 µM (inactive) | > 100 µM (inactive) |  |  | 21.8 µM (inactive) | 
